Key:
[1] = system: PAF-induced bronchial obstruction; experiment: Inhibition of PAF-induced bronchial reaction (successive inhalation of histamine, PAF and histamine); format: in vivo, guinea pigs
Procedure: All the experiments were conducted according to a randomized evaluation record:
Groups of 10 to 14 animals were divided into two sub-groups and either treated with the material to be studied or with control solutions.
1 hour, 12 hours, 4 or 7 days after the pretreatment, the animals were exposed to various inhalation stimuli. […] Ovalbumin, PAF, histamine and acetylcholine were administered as an aerosol atomized by ultrasound.
Spontaneously breathing animals were placed in a dual-chamber body plethysmograph in which the two chambers were separated around the head of the animals by a rubber collar filled with water. Changes in volume in the two chambers were measured by means of pressure transfer systems. The degree of bronchial obstruction was determined by means of the parameter, "compressed air".
The action of the plant extracts or of the compounds on the PAF-induced reaction was studied by means of the successive inhalation of histamine, PAF and histamine:
One group of animals was divided into two sub-groups and both sub-groups inhaled histamine in a concentration causing a moderate bronchial obstruction. One hour later, one group was given the substances to be studied, the other group was given the solvent alone. Both groups were subjected 12 hours later to a stimulus by means of the successive inhalation of PAF and histamine with 1 μg PAF at first and, 60 minutes later, the same dose of histamine being given as before.

[2] = system: bronchial obstruction after allergen inhalation; experiment: Inhibition of bronchial obstruction after allergen (ovalbumin) inhalation in sensitized guinea pigs; format: in vivo; conditions: for activity in preventing bronchial obstruction after inhalation of an allergen (in words): methyl gallate, gallic acid and quercetin compared
Procedure: Male white guinea pigs were sensitized by means of intraperitoneal and intramuscular injection of ovalbumin according to the well-known methods. […] All the experiments were conducted according to a randomized evaluation record: Groups of 10 to 14 animals were divided into two sub-groups and either treated with the material to be studied or with control solutions. […] Ovalbumin, PAF, histamine and acetylcholine were administered as an aerosol atomized by ultrasound. Spontaneously breathing animals were placed in a dual-chamber body plethysmograph in which the two chambers were separated around the head of the animals by a rubber collar filled with water. Changes in volume in the two chambers were measured by means of pressure transfer systems. The degree of bronchial obstruction was determined by means of the parameter, "compressed air".

Row | Structure (SMILES) | % inhibition of bronchial obstruction after PAF inhalation ([1]; 5 mg/kg) [%] | inhibition of PAF-induced bronchial reaction ([1]; oral dose of 5 mg/kg) | % inhibition of bronchial obstruction after allergen inhalation, 1st stimulus ([2]; 5 mg/kg) [%] | % inhibition of bronchial obstruction after allergen inhalation, 2nd stimulus ([2]; 5 mg/kg) [%] | inhibition of bronchial reactions to an allergen stimulus ([2]; oral dose of 5 mg/kg) [%] | % inhibition of bronchial obstruction after allergen inhalation, 1st stimulus ([2]; 45 mg/kg) [%] | % inhibition of bronchial obstruction after allergen inhalation, 2nd stimulus ([2]; 45 mg/kg) [%] | activity in preventing bronchial obstruction after inhalation of an allergen (in words) [2] | % inhibition of bronchial obstruction after PAF inhalation ([1]; 45 mg/kg) [%] | activity in PAF-induced bronchial obstruction (in words) ([1]; compared with the mixture of quercetin, gallic acid and protocatechinic acid)
1 | O=C(OC1CC(OC(=O)c2cc(O)c(O)c(O)c2)(C(=O)O)CC(OC(=O)c2cc(O)c(O)c(O)c2)C1OC(=O)c1cc(O)c(O)c(O)c1)c1cc(O)c(O)c(O)c1 (single isomer, unassigned) [tetragalloylquinic acid] | 60 ± 43 | about 60% | 86 ± 24 | 57 ± 79 | 86±24 |  |  |  |  | 
2 | O=C(O)c1cc(O)c(O)c(O)c1 [Gallic acid, gallic acid] |  |  |  |  |  | 37 ± 35 | 40 ± 31 | about the same activity |  | 
3 | COC(=O)c1cc(O)c(O)c(O)c1 [Methyl gallate, methyl gallate] |  |  |  |  |  | 43 ± 34 | 41 ± 24 | about the same activity | 65 ± 24 | somewhat more activity than the mixture
4 | O=c1c(O)c(-c2ccc(O)c(O)c2)oc2cc(O)cc(O)c12 [Quercetin, quercetin, reference compound] |  |  |  |  |  | 53 ± 23 | 34 ± 33 | about the same activity |  | 
